According to patent US10106582B2, “Complex-formation-modulating agents and uses therefor” (Factor Therapeutics Limited, priority 2012, dated 2018):

Legend:
[1] = system: MCF-7 cells; test: Transwell migration assay, IGF-I+IGFBP-5+VN trimeric complex-stimulated MCF-7 cell migration; format: cell-based, human
Text: Two motifs (motifs 1 and 8) within native VN, deemed potentially significant in supporting the binding of IGF-II, IGFBP-3 and IGFBP-5, were identified as outlined in the previous section. After preliminary in silico analyses motif 8 (J4-7) was deemed as potentially the most significant region within native VN supporting binding interactions of all the three IGF-II, IGFBP-3 and IGFBP-5 proteins and was chosen for the initial analyses. The VN-peptide covering the sequences of motif 8 was designed such that it covered all the 3AA frameshift sets that contributed to a positive spot within the motif 8 (see, FIG. 3 and Table 7). The sequence of this peptide is RVNLRTRRVDTVDPPYPRS [SEQ ID NO:100] and is designated P8. […] The sequence of that peptide is […] [SEQ ID NO:86] and is designated P7. […] The functional effects of these peptides on IGF-I:IGFBP:VN-stimulated breast cancer cell migration were investigated using Transwell® assays. Transwells® were pre-bound with VN, either alone or in combination with IGF-I and IGFBP-5 (TRI). Treatment with TRI supplemented with increasing concentrations of peptides P7 and/or P8 were assayed. TRI supplemented with Anlg or Neg peptide were included as positive and negative controls of migration inhibition, respectively. All unbound proteins were removed with washing and MCF-7 cell migration was assessed over 15 hours.
The Transwell® inserts were prepared by pre-binding the lower chamber and the under-surface of the 8-μm pore membranes with proteins as described below. For all 2D functional assays described throughout this study, including Transwell® the treatments for the pre-binding steps were VN, IGF-I+IGFBP-5+VN (TRI) complex, either alone or in combination with respective controls or VN-peptides. The concentrations of the proteins added into the culture wells were VN, 1 μg/mL; IGF-I, 30 ng/mL and IGFBP-5, 90 ng/mL, unless otherwise stated. The concentration of VN-peptides used are indicated where appropriate.
Optimal IGF-I:IGFBP-5:VN-mediated attachment and migration of MCF-7 cells in multiwell plates is obtained by pre-binding human native-IGF-I and/or IGFBP-5 and VN at concentrations of 30 ng/mL, 90 ng/mL and 1 μg/mL per well, respectively, to the lower chambers and under surfaces of Transwells®. […] For Anlg, concentrations varying from 30 ng/mL to 300 ng/mL were used.
Transwells® were prepared by pre-binding the test proteins, either alone or in combinations, to the lower chambers and under-surfaces of Transwells® following procedures previously described (Kricker et al., 2003). Briefly, 0.5 mL DMEM/F12 serum-free phenol-red free medium (SFM) containing 1 μg/mL VN was added to the lower chambers of 24-well, 8-μm pore Transwell® plates and incubated for 3 hours at 37° C. Unbound VN was removed and the wells were washed twice with 0.5 mL SFM+0.5% BSA following which 0.5 mL of SFM+0.5% BSA was placed in the lower chamber to block surfaces with no protein bound. To pre-bind growth factors, 0.5 mL SFM+0.05% BSA containing native IGF-I (30 ng/mL), IGFBP-5 (90 ng/mL) or Anlg, either alone or in combination, were added to the lower chambers of the Transwells® and incubated overnight at 4° C. The solution containing unbound growth factors was removed and the wells were washed twice with SFM+0.05% BSA and replaced with 0.5 mL of SFM+0.05% BSA. Throughout the pre-binding procedure care was taken to keep the upper surface of the Transwell® inserts dry.
Migration assays were essentially performed following protocols described previously in Leavesley et al 1993, J Cell Biol. 121:163-70. The cells in culture flasks were split 1:1, 24 hours prior to performing the migration assay. The cells were serum-starved for 4 hours and a cell suspension containing 6×10^4 cells in 200 μL SFM+0.05% BSA was seeded onto the upper-surface of the pre-coated Transwell® inserts and incubated for 15 hours at 37° C., 5% CO2 (refer to above for proteins pre-bound and concentrations used). […]

[2] = system: MCF-7 cells; test: 3D Matrigel growth assay of MCF-7 tumor spheroids; format: cell-based, human
Text: FIG. 7 is a photographic and graphical representation showing MCF-7 3D cell growth in response to peptide antagonists. MCF-7 cells suspended in media containing 1% serum and 2.5% Matrigel (Matrigel media) were layered onto a thin layer of 100% Matrigel. Spheroids were allowed to form in Matrigel media containing VN, TRI or TRI supplemented with peptides P7 and P8. Cells were allowed to grow for 14 days with media+proteins changed every 3 days. (A) Phase contrast and fluorescence microscopy was used to obtain images of the spheroids treated with 90 nM P7, P8 or P7+8. The fluorescent images were subjected to analysis using Image J to calculate spheroid sizes. The images post-ImageJ analyses are depicted in the bottom panel of A. All the images depicted are representative images obtained from triplicate experiments with treatments tested in duplicates in each replicate experiment. Scale bar denotes 100 μm. (B) Scatter plot depicts mean spheroid size (μm^2) at Day 14 for each treatment, calculated using Image-J (90 nM peptide treatments are depicted here). Each data point in the graph is the average size of all spheroids present in a single field of view at 40× magnification. ** denotes p<0.01 and * denotes p<0.05. (C) To measure cell viability/proliferation the 3D culture was treated on Day 14 with 5% Alamar Blue dye for 4 hours and fluorescence intensities were recorded. Error bars indicate SEM. ** denotes p<0.01 Vs TRI and * denotes p<0.05 Vs TRI. The experiment was repeated twice with treatments tested in duplicate wells in each replicate experiment. TRI=IGF-I:IGFBP-5:VN trimeric complex (equimolar at 10 nM concentrations).
To closely mimic in vivo conditions, cells were grown in a 3D matrix (Matrigel) closely resembling in vivo extracellular matrix physiology. MCF-7 cells suspended in growth media containing 1% serum and 2.5% Matrigel (Matrigel media) were layered onto a thin layer of 100% Matrigel. Tumor spheroids were allowed to form for 3 days after which spent media was replenished with Matrigel media containing VN only, trimeric complex, or trimeric complex supplemented with increasing concentrations of peptides (P7, P8 or P7+P8). Cells were allowed to grow for additional 11 days with media+proteins changed every 3 days. Spheroid morphology was assessed using phase-contrast microscopy and cell viability was measured using AlamarBlue, a fluorescent metabolic dye.

Sequence	MCF-7 cell migration ([1]; TRI supplemented with non-binding peptide, concentration not given, 15 hours)	Effect on TRI-stimulated MCF-7 cell migration ([1]; non-binding peptide supplemented into TRI, concentration not given)	MCF-7 cell migration ([1]; TRI supplemented with peptide at 3× molar concentration of IGFBP-5 (43 ng/mL P7, 38 ng/mL P8), 15 hours)	MCF-7 cell migration ([1]; TRI supplemented with peptide at 9× molar concentration of IGFBP-5, 15 hours)	TRI-stimulated cell viability (AlamarBlue) ([2]; 90 nM peptide, Day 14, 3D Matrigel culture)	Size of TRI-treated tumor spheroids (phase-contrast microscopy) ([2]; increasing concentrations of peptides, Matrigel 3D culture, 14 days)
KTYLFKGSQYWRFEDG [Neg, reference compound]	276±24 % of VN	did not affect	–	–	–	–
LFSSEESNLGANNYDDYRMDWL (listed as Homo sapiens) [Peptide P7, human VN motif 7 mimic]	–	–	94.7±0.2 % of VN	146±14 % of VN	significantly inhibit	decrease with increasing concentrations
